One data set deals with HeLa cells. The data set can be described thus: Cytotoxicity in HeLa cells, ATP content (ATPlite kit). The note with it: three days incubation, CC50 = 50% concentration for cytotoxicity.
The next data set has as its system rgRSV224 virus. Briefly: microbe, parasite or virus in culture. The class given is cell-based, respiratory syncytial virus (RSV). The following applies: human respiratory syncytial virus, HeLa, 72 h, read-out: RSV HELA pEC50, rgRSV224 virus (MOI=1), HeLa cells, GFP expression three days post-virus exposure (converted).

Procedure for HeLa cells: Black 384-well clear-bottom microtiter plates (Corning, Amsterdam, The Netherlands) were filled via acoustic drop ejection using the echo liquid handler (Labcyte, Sunnyvale, Calif.). 200 nL of compound stock solutions (100% DMSO) were transferred to the assay plates. 9 serial 4-fold dilutions of compound were made, creating per quadrant the same compound concentration. The assay was initiated by adding 10 μL of culture medium to each well (RPMI medium without phenol red, 10% FBS-heat inactivated, 0.04% gentamycin (50 mg/mL). All addition steps are done by using a multidrop dispenser (Thermo Scientific, Erembodegem, Belgium). Next, rgRSV224 virus (MOI=1) diluted in culture medium was added to the plates. rgRSV224 virus is an engineered virus that includes an additional GFP gene (Hallak L K, Spillmann D, Collins P L, Peeples M E. Glycosaminoglycan sulfation requirements for respiratory syncytial virus infection; Journal of virology (2000), 74(22), 10508-13) and was in-licensed from the NIH (Bethesda, Md., USA). Finally, 20 μL of a HeLa cell suspension (3,000 cells/well) were plated. Medium, virus- and mock-infected controls were included in each test. The wells contain 0.05% DMSO per volume. Cells were incubated at 37° C. in a 5% CO2 atmosphere. Three days post-virus exposure, viral replication was quantified by measuring GFP expression in the cells by an in house developed MSM laser microscope (Tibotec, Beerse, Belgium). The EC50 was defined as the 50% inhibitory concentration for GFP expression. In parallel, compounds were incubated for three days in a set of white 384-well microtiter plates (Corning) and the cytotoxicity of compounds in HeLa cells was determined by measuring the ATP content of the cells using the ATPlite kit (Perkin Elmer, Zaventem, Belgium) according to the manufacturer's instructions. The CC50 was defined as the 50% concentration for cytotoxicity.

`Cc1nnn(C)c1-c1nc(N2CCCCC2c2cc3nc(N4CCC4)cc(N4CCOCC4)n3n2)c2c(C)cccc2n1` (centres unmarked) [P73, 4-(5-(azetidin-1-yl)-2-(1-(2-(1,4-dimethyl-1H-1,2,3-triazol-5-yl)-5-methylquinazolin-4-yl)piperidin-2-yl)pyrazolo[1,5-a]pyrimidin-7-yl)morpholine] returned a melting point of 238.91 °C. The “SI TOX HELA” value in the data set with HeLa cells is 4.8. Also, in the data set with rgRSV224 virus, the EC50 was 126 nM.

The molecule `Cc1ccc2ncnc(N3CCCCC3c3cc4nc(N5CCC5)cc(C)n4n3)c2c1` (centres unmarked) [P21, 4-(2-(5-(azetidin-1-yl)-7-methylpyrazolo[1,5-a]pyrimidin-2-yl)-piperidin-1-yl)-6-methylquinazoline] came in with a melting point of 192.43 °C. Further, the “SI TOX HELA” value in the data set on HeLa cells is reported as under 4.6. Also, the EC50 with rgRSV224 virus was 398 nM.

Take `COCCOC(=O)Nc1nc(N2CCCCC2c2cc3nc(N4CCC4)cc(N4CCOCC4)n3n2)c2cc(N3CCOCC3)ccc2n1` (centres unmarked) [P14, 2-methoxyethyl 4-(2-(5-(azetidin-1-yl)-7-morpholinopyrazolo[1,5-a]-pyrimidin-2-yl)piperidin-1-yl)-6-morpholinoquinazolin-2-ylcarbamate]: the “SI TOX HELA” value with HeLa cells was under 4. Besides, the EC50 with rgRSV224 virus is 794 nM.

With `Cc1ccc2ncnc(N3CCCCC3c3cc4nc(N5CC(N)C5)c(C)cn4n3)c2c1` (centres unmarked) [P13, 1-(6-methyl-2-(1-(6-methylquinazolin-4-yl)piperidin-2-yl)pyrazolo-[1,5-a]pyrimidin-5-yl)azetidin-3-amine], the “SI TOX HELA” value in the data set on HeLa cells stood at 4.3. Further, the EC50 in the data set on rgRSV224 virus is 398 nM.

`Cc1ccc2ncnc(N3CCCC[C@@H]3c3cc4nc(N5CC[C@H](N)C5)ccn4n3)c2c1` [P50, (S)-1-(2-((R)-1-(6-methylquinazolin-4-yl)piperidin-2-yl)pyrazolo-[1,5-a]pyrimidin-5-yl)pyrrolidin-3-amine]: the “SI TOX HELA” value in the data set with HeLa cells turned out to be 4.3. Further, in the data set on rgRSV224 virus, the EC50 is 631 nM.

Take `Cc1ccc2nc(NS(C)(=O)=O)nc(N3CCCC[C@H]3c3cc4nc(N5CCC5)cc(N5CCOCC5)n4n3)c2c1` [P8, (S)—N-(4-(2-(5-(azetidin-1-yl)-7-morpholinopyrazolo[1,5-a]pyrimidin-2-yl)piperidin-1-yl)-6-methylquinazolin-2-yl)methanesulfonamide]: the “SI TOX HELA” value in the data set on HeLa cells is on record as under 4. The EC50 with rgRSV224 virus is 7.94 nM.

With `CS(=O)(=O)Nc1nc(N2CCCC[C@@H]2c2cc3nc(N4CCC4)cc(N4CCOCC4)n3n2)c2cc(Cl)ccc2n1` [P34, (R)—N-(4-(2-(5-(azetidin-1-yl)-7-morpholinopyrazolo[1,5-a]-pyrimidin-2-yl)piperidin-1-yl)-6-chloroquinazolin-2-yl)methanesulfonamide], the “SI TOX HELA” value with HeLa cells is on record as 4.3. In addition, the EC50 in the data set on rgRSV224 virus is 631 nM.

In the case of `Cc1cccc2nc(NS(C)(=O)=O)nc(N3CCCCC3c3cc4nc(N5CCC5)cc(N5CCOCC5)n4n3)c12` (centres unmarked) [P9, N-(4-(2-(5-(azetidin-1-yl)-7-morpholinopyrazolo[1,5-a]pyrimidin-2-yl)piperidin-1-yl)-5-methylquinazolin-2-yl)methanesulfonamide], the “SI TOX HELA” value in the data set on HeLa cells is reported as under 4.6. Further, in the data set on rgRSV224 virus, the EC50 was 5.01 nM.

Regarding `COC(=O)c1nc(N2CCCCC2c2cc3nc(N4CCC4)cc(N4CCOCC4)n3n2)c2c(C)cccc2n1` (centres unmarked) [P67, methyl 4-(2-(5-(azetidin-1-yl)-7-morpholinopyrazolo[1,5-a]pyrimidin-2-yl)piperidin-1-yl)-5-methylquinazoline-2-carboxylate], the “SI TOX HELA” value in the data set on HeLa cells was under 4.3. For the same molecule, the EC50 in the data set with rgRSV224 virus was 126 nM.

Consider `Clc1ccc2ncnc(N3CCCCC3c3cc4nc(N5CCC5)cc(N5CCOCC5)n4n3)c2c1` (centres unmarked) [P1, 4-(5-(azetidin-1-yl)-2-(1-(6-chloroquinazolin-4-yl)piperidin-2-yl)-pyrazolo[1,5-a]pyrimidin-7-yl)morpholine], for which, in the data set on HeLa cells, the “SI TOX HELA” value was 4.4. For the same molecule, the EC50 in the data set with rgRSV224 virus was 794 nM.

Consider `Cc1cn2nc(C3CCCCN3c3ncnc4cccc(C)c34)cc2nc1N1CC(O)C1` (centres unmarked) [P23, 1-(6-methyl-2-(1-(5-methylquinazolin-4-yl)piperidin-2-yl)pyrazolo-[1,5-a]pyrimidin-5-yl)azetidin-3-ol], for which the “SI TOX HELA” value in the data set with HeLa cells is listed as under 4.6. Further, in the data set with rgRSV224 virus, the EC50 is 15.8 nM.

As to `Cc1cc(C)c2c(N3CCCCC3c3cc4nc(N5CCC5)cc(N5CCOCC5)n4n3)ncnc2c1` (centres unmarked) [P59, 4-(5-(azetidin-1-yl)-2-(1-(5,7-dimethylquinazolin-4-yl)piperidin-2-yl)-pyrazolo[1,5-a]pyrimidin-7-yl)morpholine], in the data set with HeLa cells, the “SI TOX HELA” value was 4.3. Moreover, in the data set on rgRSV224 virus, the EC50 is 398 nM.

For the molecule `Cc1cccc2nc(C(=O)NS(C)(=O)=O)nc(N3CCCCC3c3cc4nc(N5CCC5)cc(N5CCOCC5)n4n3)c12` (centres unmarked) [P69, 4-(2-(5-(azetidin-1-yl)-7-morpholinopyrazolo[1,5-a]pyrimidin-2-yl)-piperidin-1-yl)-5-methyl-N-(methylsulfonyl)quinazoline-2-carboxamide], the “SI TOX HELA” value with HeLa cells is under 4. Moreover, the EC50 in the data set with rgRSV224 virus was 316 nM.

As to `Cc1cccc2nc(C(=O)O)nc(N3CCCCC3c3cc4nc(N5CCC5)cc(N5CCOCC5)n4n3)c12` (centres unmarked) [P68, 4-(2-(5-(azetidin-1-yl)-7-morpholinopyrazolo[1,5-a]pyrimidin-2-yl)-piperidin-1-yl)-5-methylquinazoline-2-carboxylic acid], the “SI TOX HELA” value with HeLa cells is recorded as under 4.6. For the same molecule, the EC50 with rgRSV224 virus was 316 nM.

Regarding `CCOc1nc(N2CCCCC2c2cc3nc(N4CCC4)cc(N4CCOCC4)n3n2)c2c(C)cccc2n1` (centres unmarked) [P31, 4-(5-(azetidin-1-yl)-2-(1-(2-ethoxy-5-methylquinazolin-4-yl)piperidin-2-yl)pyrazolo[1,5-a]pyrimidin-7-yl)morpholine], in the data set with HeLa cells, the “SI TOX HELA” value was found to be 4.8. The EC50 with rgRSV224 virus is 158 nM.

Take `Cc1cccc2ncnc(N3CCCCC3c3cc4nc(N5CCC5)cc(N5CCN(S(C)(=O)=O)CC5)n4n3)c12` (centres unmarked) [P55, 4-(2-(5-(azetidin-1-yl)-7-(4-(methylsulfonyl)piperazin-1-yl)pyrazolo-[1,5-a]pyrimidin-2-yl)piperidin-1-yl)-5-methylquinazoline]: the “SI TOX HELA” value with HeLa cells is recorded as 4.3. For the same molecule, the EC50 with rgRSV224 virus is 15.8 nM.

For the molecule `CNC(=O)c1nc(N2CCCCC2c2cc3nc(N4CCC4)cc(N4CCOCC4)n3n2)c2c(C)cccc2n1` (centres unmarked) [P70, 4-(2-(5-(azetidin-1-yl)-7-morpholinopyrazolo[1,5-a]pyrimidin-2-yl)-piperidin-1-yl)-N,5-dimethylquinazoline-2-carboxamide], the “SI TOX HELA” value with HeLa cells is 4.3. For the same molecule, the EC50 in the data set with rgRSV224 virus is 631 nM.

Consider `Cc1cn2nc([C@H]3CCCCN3c3ncnc4cccc(C)c34)cc2nc1N1CC(O)C1` [P24, (R)-1-(6-methyl-2-(1-(5-methylquinazolin-4-yl)piperidin-2-yl)pyrazolo[1,5-a]-pyrimidin-5-yl)azetidin-3-ol], for which, in the data set with HeLa cells, the “SI TOX HELA” value was under 4.6. Moreover, the EC50 in the data set with rgRSV224 virus is over 25100 nM.

Consider `CSc1nc(N2CCCCC2c2cc3nc(N4CCC4)cc(N4CCOCC4)n3n2)c2cc(C)ccc2n1` (centres unmarked) [P57, 4-(5-(azetidin-1-yl)-2-(1-(6-methyl-2-(methylthio)quinazolin-4-yl)-piperidin-2-yl)pyrazolo[1,5-a]pyrimidin-7-yl)morpholine], for which the “SI TOX HELA” value in the data set on HeLa cells was found to be 4.5. Moreover, the EC50 in the data set on rgRSV224 virus is 631 nM.

Regarding `Cc1ccc2nc(NS(C)(=O)=O)nc(N3CCCC[C@@H]3c3cc4nc(N5CCC5)cc(N5CCOCC5)n4n3)c2c1` [P7, (R)—N-(4-(2-(5-(azetidin-1-yl)-7-morpholinopyrazolo[1,5-a]pyrimidin-2-yl)-piperidin-1-yl)-6-methylquinazolin-2-yl)methanesulfonamide], the “SI TOX HELA” value in the data set on HeLa cells is under 4. Also, the EC50 in the data set on rgRSV224 virus is 2000 nM.

For the molecule `CCc1cccc2ncnc(N3CCCCC3c3cc4nc(N5CCC5)cc(N5CCOCC5)n4n3)c12` (centres unmarked) [P58, 4-(5-(azetidin-1-yl)-2-(1-(5-ethylquinazolin-4-yl)piperidin-2-yl)-pyrazolo[1,5-a]pyrimidin-7-yl)morpholine], the “SI TOX HELA” value in the data set on HeLa cells was under 4. For the same molecule, the EC50 in the data set on rgRSV224 virus is 501 nM.

Consider `Cc1cn2nc(C3CCCCN3c3ncnc4cccc(C)c34)cc2nc1N1CC(N)C1` (centres unmarked) [P26, 1-(6-methyl-2-(1-(5-methylquinazolin-4-yl)piperidin-2-yl)pyrazolo-[1,5-a]pyrimidin-5-yl)azetidin-3-amine], for which, in the data set on HeLa cells, the “SI TOX HELA” value was found to be 4.3. For the same molecule, in the data set with rgRSV224 virus, the EC50 was 25.1 nM.

Take `Cc1nc(N2CCCCC2c2cc3nc(N4CC(O)C4)c(C)cn3n2)c2c(C)cccc2n1` (centres unmarked) [P37, 1-(2-(1-(2,5-dimethylquinazolin-4-yl)piperidin-2-yl)-6-methyl-pyrazolo[1,5-a]pyrimidin-5-yl)azetidin-3-ol]: the “SI TOX HELA” value with HeLa cells is on record as 4.3. In addition, the EC50 with rgRSV224 virus was 316 nM.

Take `Cc1ccc2nc(C)nc(N3CCCCC3c3cc4nc(N5CC(O)C5)c(C)cn4n3)c2c1` (centres unmarked) [P42, 1-(2-(1-(2,6-dimethylquinazolin-4-yl)piperidin-2-yl)-6-methyl-pyrazolo[1,5-a]pyrimidin-5-yl)azetidin-3-ol]: in the data set with HeLa cells, the “SI TOX HELA” value is on record as under 4.6. In the data set with rgRSV224 virus, the EC50 was 2510 nM.

Turning to `CCc1ccc2ncnc(N3CCCCC3c3cc4nc(N5CCC5)cc(N5CCOCC5)n4n3)c2c1C` (centres unmarked) [P63, 4-(5-(azetidin-1-yl)-2-(1-(6-ethyl-5-methylquinazolin-4-yl)piperidin-2-yl)pyrazolo[1,5-a]pyrimidin-7-yl)morpholine], in the data set with HeLa cells, the “SI TOX HELA” value is on record as 4.4. Further, in the data set on rgRSV224 virus, the EC50 is 398 nM.

Consider `CCOc1cccc2ncnc(N3CCCCC3c3cc4nc(N5CCC5)cc(N5CCOCC5)n4n3)c12` (centres unmarked) [P61, 4-(5-(azetidin-1-yl)-2-(1-(5-ethoxyquinazolin-4-yl)piperidin-2-yl)-pyrazolo[1,5-a]pyrimidin-7-yl)morpholine], for which the “SI TOX HELA” value in the data set on HeLa cells was under 4. Besides, the EC50 in the data set on rgRSV224 virus is 31.6 nM.

As for `Cc1c(C2CC2)nc2cc(C3CCCCN3c3ncnc4cccc(C)c34)nn2c1N1CCOCC1` (centres unmarked) [P47, 4-(5-cyclopropyl-6-methyl-2-(1-(5-methylquinazolin-4-yl)piperidin-2-yl)pyrazolo[1,5-a]pyrimidin-7-yl)morpholine], in the data set with HeLa cells, the “SI TOX HELA” value is given as 4.6. In the data set with rgRSV224 virus, the EC50 is 501 nM.

The record behind these values is patent US9981976B2, “Piperidine substituted pyrazolo[1,5-A]pyrimidine derivatives with inhibitory activity on the replication of the respiratory syncytial virus (RSV)” (priority 2014, dated 2018).
